# Experimental data: ChEMBL document CHEMBL3044938, “Chromatographic separation and in vitro activity of sorgoleone congeners from the roots of sorghum bicolor” (J Agric Food Chem, 2003)
# Biological target: Photosystem II protein D1 (Spinacia oleracea, UniProt P69560)
# Assay: Inhibition of photosystem II mediated oxygen evolution in Spinacia oleracea (spinach) thylakoid measured for 25 sec
# Details: read-out: I50
row,Structure (SMILES),IC50
1,CCCCCC/C=C\CCCCCCCC1=C(O)C(=O)C=C(OC)C1=O [Sorgoleone-362],109 nM
2,CCC/C=C\C/C=C\CCCCCCCC1=C(O)C(=O)C=C(OC)C1=O [Sorgoleone-360],104 nM
3,CCCCCCCCCCCCCC1=C(O)C(=O)C=C(OC)C1=O [Sorgoleone-364],103 nM
4,C=CC/C=C\C/C=C\CCCCCCCC1=C(O)C(=O)C=C(OC)C1=O [SORGOLEONE],65 nM
